Data reported in patent US20230139171A1 (SITA Information Networking Computing UK Limited, priority 2019, published 2023).

Assays:
Assay type in all cases: cell-based
human TLR7 = biological target: T1, human TLR7 (Homo sapiens, UniProt Q9NYK1); experiment: TLR7 inhibition reporter assay (HEK-Blue cells, SEAP reporter, gardiquimod stimulation); conditions: HEK-Blue cells overexpressing human TLR7, SEAP reporter, gardiquimod 7.5 μM; read-out: TLR7 IC50
T1 construct: host or cells: HEK-Blue cells
T1 sequence (Q9NYK1 27-1049): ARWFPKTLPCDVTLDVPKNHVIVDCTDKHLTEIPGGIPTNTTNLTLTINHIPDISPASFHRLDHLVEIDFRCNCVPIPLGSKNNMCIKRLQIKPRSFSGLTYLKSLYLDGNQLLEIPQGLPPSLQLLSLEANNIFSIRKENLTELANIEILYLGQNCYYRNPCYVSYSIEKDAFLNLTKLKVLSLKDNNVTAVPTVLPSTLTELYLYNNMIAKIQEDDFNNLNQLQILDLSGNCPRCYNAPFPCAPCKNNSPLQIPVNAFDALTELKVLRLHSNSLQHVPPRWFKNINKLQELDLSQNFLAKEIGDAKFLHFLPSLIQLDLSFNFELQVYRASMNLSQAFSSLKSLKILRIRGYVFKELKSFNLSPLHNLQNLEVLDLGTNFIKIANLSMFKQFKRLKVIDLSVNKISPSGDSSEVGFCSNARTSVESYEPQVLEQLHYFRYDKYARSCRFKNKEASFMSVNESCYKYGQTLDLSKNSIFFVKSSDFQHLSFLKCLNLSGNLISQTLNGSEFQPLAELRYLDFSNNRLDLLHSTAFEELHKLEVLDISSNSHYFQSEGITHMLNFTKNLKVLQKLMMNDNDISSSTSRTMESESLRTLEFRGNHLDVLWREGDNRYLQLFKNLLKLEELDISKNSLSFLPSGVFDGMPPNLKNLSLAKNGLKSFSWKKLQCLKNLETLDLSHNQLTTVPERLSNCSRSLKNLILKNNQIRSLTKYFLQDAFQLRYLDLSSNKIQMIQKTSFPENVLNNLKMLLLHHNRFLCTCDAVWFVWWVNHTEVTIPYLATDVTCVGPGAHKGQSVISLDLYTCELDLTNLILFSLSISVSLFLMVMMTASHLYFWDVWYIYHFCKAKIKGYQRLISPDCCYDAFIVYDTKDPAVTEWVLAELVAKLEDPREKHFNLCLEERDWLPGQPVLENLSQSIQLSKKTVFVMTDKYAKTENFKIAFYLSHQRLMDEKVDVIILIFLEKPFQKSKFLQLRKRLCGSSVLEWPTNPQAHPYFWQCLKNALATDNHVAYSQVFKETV
Procedure, shortened: (§1)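 HEK-Blue cells overexpressing human TLR7, TLR8 or TLR9 carry a SEAP reporter driven by NF-κB/AP-1 sites. Compounds (0.05 nM–50 μM) were preincubated 30 min at room temperature, then cells were stimulated with gardiquimod 7.5 μM (TLR7), R848 15.9 μM (TLR8) or ODN2006 5 nM (TLR9) for 22 h at 37 °C.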

human TLR8 = biological target: T2, human TLR8 (Homo sapiens, UniProt Q9NR97); experiment: TLR8 inhibition reporter assay (HEK-Blue cells, SEAP reporter, R848 stimulation); conditions: HEK-Blue cells overexpressing human TLR8, SEAP reporter, R848 15.9 μM; read-out: TLR8 IC50
T2 construct: host or cells: HEK-Blue cells
T2 sequence (Q9NR97 27-1041): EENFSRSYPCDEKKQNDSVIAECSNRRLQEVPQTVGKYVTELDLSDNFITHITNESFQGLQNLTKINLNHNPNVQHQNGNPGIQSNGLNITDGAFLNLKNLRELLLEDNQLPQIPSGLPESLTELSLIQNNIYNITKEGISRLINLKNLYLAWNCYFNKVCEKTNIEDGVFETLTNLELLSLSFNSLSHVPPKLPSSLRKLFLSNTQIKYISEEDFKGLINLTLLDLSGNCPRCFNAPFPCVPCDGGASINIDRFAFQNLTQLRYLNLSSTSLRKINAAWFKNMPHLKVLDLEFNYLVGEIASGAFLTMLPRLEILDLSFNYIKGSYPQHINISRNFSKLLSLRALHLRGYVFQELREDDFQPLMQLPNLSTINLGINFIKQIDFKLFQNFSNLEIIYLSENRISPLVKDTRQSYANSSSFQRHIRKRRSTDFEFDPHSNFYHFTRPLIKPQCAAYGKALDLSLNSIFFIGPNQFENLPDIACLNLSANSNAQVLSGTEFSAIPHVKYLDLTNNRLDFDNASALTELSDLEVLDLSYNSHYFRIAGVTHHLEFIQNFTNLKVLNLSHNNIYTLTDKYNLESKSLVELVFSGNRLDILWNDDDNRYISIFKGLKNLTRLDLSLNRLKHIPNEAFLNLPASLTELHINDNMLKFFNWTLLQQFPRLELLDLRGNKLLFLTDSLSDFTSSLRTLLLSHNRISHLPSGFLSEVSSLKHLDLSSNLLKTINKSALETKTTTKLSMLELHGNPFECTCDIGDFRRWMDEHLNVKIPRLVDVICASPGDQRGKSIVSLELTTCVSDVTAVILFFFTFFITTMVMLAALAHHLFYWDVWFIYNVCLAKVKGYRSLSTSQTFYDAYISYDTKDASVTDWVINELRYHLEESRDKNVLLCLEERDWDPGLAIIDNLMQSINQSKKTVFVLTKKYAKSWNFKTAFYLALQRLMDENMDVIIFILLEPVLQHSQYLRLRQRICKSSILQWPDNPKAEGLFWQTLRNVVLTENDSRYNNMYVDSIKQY
Procedure, shortened: as §1

human TLR9 = biological target: T3, human TLR9 (Homo sapiens, UniProt Q9NR96); experiment: TLR9 inhibition reporter assay (HEK-Blue cells, SEAP reporter, ODN2006 stimulation); conditions: HEK-Blue cells overexpressing human TLR9, SEAP reporter, ODN2006 5 nM
T3 construct: host or cells: HEK-Blue cells
T3 sequence (Q9NR96 26-1032): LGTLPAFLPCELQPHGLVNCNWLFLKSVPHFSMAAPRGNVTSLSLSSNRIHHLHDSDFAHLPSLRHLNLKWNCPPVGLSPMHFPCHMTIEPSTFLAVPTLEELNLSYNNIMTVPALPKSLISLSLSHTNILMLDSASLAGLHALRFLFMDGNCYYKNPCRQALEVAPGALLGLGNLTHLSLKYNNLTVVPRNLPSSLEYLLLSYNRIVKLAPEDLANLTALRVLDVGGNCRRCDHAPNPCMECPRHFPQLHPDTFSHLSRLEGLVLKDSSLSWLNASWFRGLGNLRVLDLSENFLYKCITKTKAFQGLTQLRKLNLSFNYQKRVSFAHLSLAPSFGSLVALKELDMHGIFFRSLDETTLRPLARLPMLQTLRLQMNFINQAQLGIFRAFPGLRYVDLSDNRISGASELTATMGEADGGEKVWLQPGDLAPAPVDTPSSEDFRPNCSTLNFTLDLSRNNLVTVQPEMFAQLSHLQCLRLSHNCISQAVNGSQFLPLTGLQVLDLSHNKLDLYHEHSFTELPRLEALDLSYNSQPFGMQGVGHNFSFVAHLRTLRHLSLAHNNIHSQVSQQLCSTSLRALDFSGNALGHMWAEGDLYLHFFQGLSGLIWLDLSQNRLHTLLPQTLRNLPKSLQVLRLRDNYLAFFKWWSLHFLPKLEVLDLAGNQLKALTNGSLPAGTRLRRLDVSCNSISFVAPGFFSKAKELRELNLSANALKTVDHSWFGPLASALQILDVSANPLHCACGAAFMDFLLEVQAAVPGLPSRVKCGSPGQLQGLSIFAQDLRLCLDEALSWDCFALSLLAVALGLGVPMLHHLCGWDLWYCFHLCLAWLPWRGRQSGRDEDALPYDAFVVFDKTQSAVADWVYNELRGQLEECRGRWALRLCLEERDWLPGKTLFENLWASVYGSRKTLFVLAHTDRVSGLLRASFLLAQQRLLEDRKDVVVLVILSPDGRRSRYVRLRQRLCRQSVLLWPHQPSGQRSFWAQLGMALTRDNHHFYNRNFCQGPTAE
Procedure, shortened: as §1

With `CC(C)c1c(-c2cn(C)c3ncccc23)[nH]c2sc(C3CCC(NCC4(C)COC4)CC3)nc12` (single isomer, unassigned) [Example 173, 4-(6-isopropyl-5-(1-methyl-1H-pyrrolo[2,3-b]pyridin-3-yl)-4H-pyrrolo[3,2-d]thiazol-2-yl)-N-((3-methyloxetan-3-yl)methyl)cyclohexan-1-amine] as the molecule, how does the IC50 (human TLR7) read?
The IC50 was 8.56 nM.

What about the IC50 (human TLR8) of the same molecule?
The IC50 was 7.58 nM.

And the IC50 (human TLR9)?
Its IC50 is 7790 nM.

What does the source list for `CCN(C)C1CCC(c2nc3c(C(C)C)c(-c4cn(C)c5ncccc45)[nH]c3s2)CC1` (single isomer, unassigned) [Example 174, N-ethyl-4-(6-isopropyl-5-(1-methyl-1H-pyrrolo[2,3-b]pyridin-3-yl)-4H-pyrrolo[3,2-d]thiazol-2-yl)-N-methylcyclohexan-1-amine]?
IC50 (human TLR7): 1.84 nM; IC50 (human TLR8): 3.13 nM; IC50 (human TLR9): 16000 nM

What does the source list for `CCN(C)C1CCC(c2nc3c(C(C)C)c(-c4cn(C)c5ncccc45)[nH]c3s2)CC1` (single isomer, unassigned) [Example 175, N-ethyl-4-(6-isopropyl-5-(1-methyl-1H-pyrrolo[2,3-b]pyridin-3-yl)-4H-pyrrolo[3,2-d]thiazol-2-yl)-N-methylcyclohexan-1-amine]?
IC50 (human TLR7): 3.76 nM; IC50 (human TLR8): 6.23 nM; IC50 (human TLR9): 6250 nM

For `CC(C)c1c(-c2cn(C)c3ncccc23)[nH]c2sc(C3CCC(NC45CC(C4)C5)CC3)nc12` (single isomer, unassigned) [Example 176, N-(4-(6-isopropyl-5-(1-methyl-1H-pyrrolo[2,3-b]pyridin-3-yl)-4H-pyrrolo[3,2-d]thiazol-2-yl)cyclohexyl)bicyclo[1.1.1]pentan-1-amine], which IC50 (human TLR7) is on record?
Its IC50 is 23.3 nM.

What about the IC50 (human TLR8) of the same molecule?
Its IC50 is 23.7 nM.

And the IC50 (human TLR9)?
The IC50 was 9580 nM.

`CC(C)c1c(-c2cn(C)c3ncccc23)[nH]c2sc(C3CCC(NC45CC(C4)C5)CC3)nc12` (single isomer, unassigned) [Example 177, N-(4-(6-isopropyl-5-(1-methyl-1H-pyrrolo[2,3-b]pyridin-3-yl)-4H-pyrrolo[3,2-d]thiazol-2-yl)cyclohexyl)bicyclo[1.1.1]pentan-1-amine] was tested. Which IC50 (human TLR7) did it give?
Its IC50 is 3.23 nM.

What about the IC50 (human TLR8) of the same molecule?
Its IC50 is 5.63 nM.

What about the IC50 (human TLR9) of the same molecule?
The IC50 was 9790 nM.

With `CC(C)c1c(-c2cn(C)c3ncccc23)[nH]c2sc(C3CCC(NC4COC4)CC3)nc12` (single isomer, unassigned) [Example 178, N-(4-(6-isopropyl-5-(1-methyl-1H-pyrrolo[2,3-b]pyridin-3-yl)-4H-pyrrolo[3,2-d]thiazol-2-yl)cyclohexyl)oxetan-3-amine] as the molecule, how does the IC50 (human TLR7) read?
Its IC50 is 1.69 nM.

And the IC50 (human TLR8)?
Its IC50 is 2.44 nM.

And the IC50 (human TLR9)?
The IC50 was 6710 nM.

How did the IC50 (human TLR7) turn out when `CC(C)c1c(-c2cn(C)c3ncccc23)[nH]c2sc(C3CCC(NC4COC4)CC3)nc12` (single isomer, unassigned) [Example 179, N-(4-(6-isopropyl-5-(1-methyl-1H-pyrrolo[2,3-b]pyridin-3-yl)-4H-pyrrolo[3,2-d]thiazol-2-yl)cyclohexyl)oxetan-3-amine] was run?
Its IC50 is 9.72 nM.

And the IC50 (human TLR8)?
Its IC50 is 13.5 nM.

And the IC50 (human TLR9)?
The IC50 was 7260 nM.

How did the IC50 (human TLR7) turn out when `CC(C)c1c(-c2cn(C)c3ncccc23)[nH]c2sc(C3CCC(N4CC5(COC5)C4)CC3)nc12` (single isomer, unassigned) [Example 180, 6-(4-(6-isopropyl-5-(1-methyl-1H-pyrrolo[2,3-b]pyridin-3-yl)-4H-pyrrolo[3,2-d]thiazol-2-yl)cyclohexyl)-2-oxa-6-azaspiro[3.3]heptane] was run?
Its IC50 is 3.54 nM.

And the IC50 (human TLR8)?
Its IC50 is 3.7 nM.

What about the IC50 (human TLR9) of the same molecule?
The IC50 was 5280 nM.

How did the IC50 (human TLR7) turn out when `CC(C)c1c(-c2cn(C)c3ncccc23)[nH]c2sc(C3CCC(N4CC5(COC5)C4)CC3)nc12` (single isomer, unassigned) [Example 181, 6-(4-(6-isopropyl-5-(1-methyl-1H-pyrrolo[2,3-b]pyridin-3-yl)-4H-pyrrolo[3,2-d]thiazol-2-yl)cyclohexyl)-2-oxa-6-azaspiro[3.3]heptane] was run?
The IC50 was 9.92 nM.

What about the IC50 (human TLR8) of the same molecule?
The IC50 was 36 nM.

And the IC50 (human TLR9)?
The IC50 was 5660 nM.

What does the source list for `CC(C)c1c(-c2cn(C)c3ncccc23)[nH]c2sc(C3CCC(NCC(C)(C)O)CC3)nc12` (single isomer, unassigned) [Example 182, 1-((4-(6-isopropyl-5-(1-methyl-1H-pyrrolo[2,3-b]pyridin-3-yl)-4H-pyrrolo[3,2-d]thiazol-2-yl)cyclohexyl)amino)-2-methylpropan-2-ol]?
IC50 (human TLR7): 1.74 nM; IC50 (human TLR8): 0.76 nM; IC50 (human TLR9): 13500 nM

How did the IC50 (human TLR7) turn out when `CC(C)c1c(-c2cn(C)c3ncccc23)[nH]c2sc(C3CCC(NCC(C)(C)O)CC3)nc12` (single isomer, unassigned) [Example 183, 1-((4-(6-isopropyl-5-(1-methyl-1H-pyrrolo[2,3-b]pyridin-3-yl)-4H-pyrrolo[3,2-d]thiazol-2-yl)cyclohexyl)amino)-2-methylpropan-2-ol] was run?
The IC50 was 8.89 nM.

And the IC50 (human TLR8)?
The IC50 was 9.41 nM.

And the IC50 (human TLR9)?
The IC50 was 6790 nM.
